Patent US20220331217A1, “Hair restructuring association comprising a quaternary ammonium salt and a sulpho-derivative of vegetable fatty acids” (Greengredients S.r.l., priority 2021, published 2022)

Test: During breakage test combing (weight of broken hairs after 20 combings)
Settings: bleached strands, treated at 15%, combed 20 times, vs bleached untreated reference
From the text: All samples (hair strands) have been combed for 20 times and broken hairs have been weighted (with 0.0001 g accuracy, METTLER TOLEDO EXCELLENCE analytical scale).

With NCCCOCCOCCOCCCN.O=C(O)C=CC(=O)O.O=C(O)C=CC(=O)O [bis-aminopropyl diglycol dimaleate] as the molecule, how does the “reduction in broken hairs” value read?
Its value is 50.00%.
